US12570687B2, “Triterpenoid compounds, pharmaceutical compositions thereof, and their use for treating a nuclear receptor subfamily 4 group a member 1-mediated disease” (NUCMITO PHARMACEUTICALS COMPANY LIMITED, priority 2019, dated 2026)

Tests used:
Assay type in all cases: cell-based
[1] = tested on: MDA-MB-231 (breast cancer); assay: MTT antiproliferative assay, MDA-MB-231; conditions: Homo sapiens, MDA-MB-231, 10 μM, 48 or 72 h, read-out: inhibition of cell growth, MDA-MB-231
Procedure: (§1) The antiproliferative activity of a test compound was determined in cell lines: MDA-MB-231 (breast cancer), HepG2 (liver cancer), SW620 (colon cancer), A375 (malignant melanoma), A431 (epidermoid carcinoma), A549 (lung adenocarcinoma), and HeLa ([…]). MDA-MB-231, HepG2, SW480, SW620, A375, and A431 cells were cultured in Dulbecco's modified Eagle's medium (DMEM) containing 10% fetal bovine serum (FBS). HeLa cells were cultured in MEM/EBSS (MEM) containing 10% FBS. A549 cells were maintained in Kaighn's modification of Ham's F-12 medium containing 10% FBS. The colorimetric MTT (3-(4,5-dimethylthiazol-2-yl)-2,5-diphenyltetrazolium bromide) assay was used to measure the cell viability of different cells following treatment with the test compound.
(§2) Briefly cells were seeded in a 96 well plate at a density of 2,000-5,000 cells/well. Following attachment, the cells were treated with the test compound in media at various concentrations ranging from 0.137 to 100 μM or at a single concentration of 10 μM. After the cells were incubated at 37° C. for 48 or 72 h, MTT (20 μL, 5 mg/mL in PBS) was added to each well and the cells were incubated for another 4 h at 37° C. The supernatant was removed carefully and 150 μL of DMSO was added to each well to dissolve the MTT formazan crystals. The plate was shaken for 15-20 min and the absorbance value of each well was determined using a multi-well plate reader at 490 nm. The wells treated with DMSO were taken as a vehicle control. Data were also obtained similarly for all the replicates and the percentage viability was determined with respect to the DMSO-treated cells. The results are summarized in Table 1 below, wherein A represents no less than 80% inhibition of cell growth at 10 μM; B represents no less than 50% but less than 80% inhibition of cell growth at 10 μM; C represents no less than 30% but less than 50% inhibition of cell growth at 10 μM; and D represents less than 30% inhibition of cell growth at 10 μM.

HeLa (ovarian cancer) = assay: MTT antiproliferative assay, HeLa; conditions: Homo sapiens, 48 or 72 h, read-out: inhibition of cell growth, HELA
Procedure: as §1, §2

SW620 (colon cancer) = assay: MTT antiproliferative assay, SW620; conditions: Homo sapiens, SW-620, SW620, 10 μM, 48 or 72 h, read-out: inhibition of cell growth, SW620
Procedure: as §1, §2

[2] = tested on: A549 (lung adenocarcinoma); assay: MTT antiproliferative assay, A549; conditions: Homo sapiens, A549, 10 μM, 48 or 72 h, read-out: inhibition of cell growth, A549
Procedure: as §1, §2

[3] = tested on: A431 (epidermoid carcinoma); assay: MTT antiproliferative assay, A431; conditions: Homo sapiens, A-431, A431, 10 μM, 48 or 72 h, read-out: inhibition of cell growth, A431
Procedure: as §1, §2

[4] = tested on: A375 (malignant melanoma); assay: MTT antiproliferative assay, A375; conditions: Homo sapiens, A-375, A375, 10 μM, 48 or 72 h, read-out: inhibition of cell growth, A375
Procedure: as §1, §2

HepG2 (liver cancer) = assay: MTT antiproliferative assay, HepG2; conditions: Homo sapiens, HepG2, 10 μM, 48 or 72 h, read-out: inhibition of cell growth, HepG2
Procedure: as §1, §2

Row | Structure (SMILES) | inhibition at 10 µM [1] | inhibition at 10 µM (HeLa (ovarian cancer)) | inhibition at 10 µM (SW620 (colon cancer)) | inhibition at 10 µM [2] | inhibition at 10 µM [3] | inhibition at 10 µM [4] | inhibition at 10 µM (HepG2 (liver cancer))
1 | CO[C@@]1(C)C2=CC=C3[C@@](C)(CC[C@@]4(C)[C@@H]5C[C@](C)(C(=O)O)CC[C@]5(C)CC[C@]34C)C2=CC(=O)[C@@H]1O [Compound A15, (2R,4aS,6aS,9S,10R,12bR,14aS,14bR)-10-hydroxy-9-methoxy-2,4a,6a,9,12b,14a-hexamethyl-11-oxo-1,2,3,4,4a,5,6,6a,9,10,11,12b,13,14,14a,14b-hexadecahydropicene-2-carboxylic acid] | ≥ 80% | 50 to 80% | 30 to 50% | < 30% | 50 to 80% | 50 to 80% | 30 to 50%
2 | COC(=O)[C@]1(C)CC[C@]2(C)CC[C@]3(C)C4=CC=C5C(=C/C(=C\C#N)C(=O)C5(C)O)[C@]4(C)CC[C@@]3(C)[C@@H]2C1 (stereo partly drawn) [Compound A37, methyl (2R,4aS,6aS,11E,12bR,14aS,14bR)-11-(cyanomethylidene)-9-hydroxy-2,4a,6a,9,12b,14a-hexamethyl-10-oxo-1,2,3,4,4a,5,6,6a,9,10,11,12b,13,14,14a,14b-hexadecahydropicene-2-carboxylate] | ≥ 80% | ≥ 80% | 50 to 80% | < 30% | ≥ 80% | 30 to 50% | 30 to 50%
3 | COC(=O)[C@]1(C)CC[C@]2(C)CC[C@]3(C)C4=CC=C5C(=CC(=O)[C@H](O)[C@@]5(C)OC)[C@]4(C)CC[C@@]3(C)[C@@H]2C1 [Compound A20, methyl (2R,4aS,6aS,9S,10R,12bR,14aS,14bR)-10-hydroxy-9-methoxy-2,4a,6a,9,12b,14a-hexamethyl-11-oxo-1,2,3,4,4a,5,6,6a,9,10,11,12b,13,14,14a,14b-hexadecahydropicene-2-carboxylate] | ≥ 80% | ≥ 80% | ≥ 80% | ≥ 80% | ≥ 80% | 50 to 80% | ≥ 80%
4 | CO[C@@]1(C)C2=CC=C3[C@@](C)(CC[C@@]4(C)[C@@H]5C[C@](C)(C(N)=O)CC[C@]5(C)CC[C@]34C)C2=CC(=O)/C1=C\C#N [Compound A59, (2R,4aS,6aS,9S,10Z,12bR,14aS,14bR)-10-(cyanomethylidene)-9-methoxy-2,4a,6a,9,12b,14a-hexamethyl-11-oxo-1,2,3,4,4a,5,6,6a,9,10,11,12b,13,14,14a,14b-hexadecahydropicene-2-carboxamide] | ≥ 80% | ≥ 80% | ≥ 80% | ≥ 80% | ≥ 80% | ≥ 80% | ≥ 80%
5 | CO[C@@]1(C)C2=CC=C3[C@@](C)(CC[C@@]4(C)[C@@H]5C[C@](C)(C=O)CC[C@]5(C)CC[C@]34C)C2=CC(=O)[C@@H]1O [Compound A19, (2R,4aS,6aS,9S,10R,12bR,14aS,14bR)-10-hydroxy-9-methoxy-2,4a,6a,9,12b,14a-hexamethyl-11-oxo-1,2,3,4,4a,5,6,6a,9,10,11,12b,13,14,14a,14b-hexadecahydropicene-2-carbaldehyde] | 50 to 80% | ≥ 80% | 50 to 80% | 50 to 80% | ≥ 80% | 30 to 50% | 50 to 80%
6 | CCCNC(=O)[C@]1(C)CC[C@]2(C)CC[C@]3(C)C4=CC=C5C(=CC(=O)C(=O)[C@@]5(C)OC)[C@]4(C)CC[C@@]3(C)[C@@H]2C1 [Compound A12, (2R,4aS,9S,6aS,12bR,14aS,14bR)—N-propyl-9-methoxy-2,4a,6a,9,12b,14a-hexamethyl-10,11-dioxo-1,2,3,4,4a,5,6,6a,9,10,11,12b,13,14,14a,14b-hexadecahydropicene-2-carboxamide] | 50 to 80% | ≥ 80% | 50 to 80% | ≥ 80% | ≥ 80% | 30 to 50% | ≥ 80%
7 | CO[C@@]1(C)C2=CC=C3[C@@](C)(CC[C@@]4(C)[C@@H]5C[C@](C)(C(=O)O)CC[C@]5(C)CC[C@]34C)C2=CC2(O)OCCN=C21 (stereo partly drawn) [Compound A46, (2R,4aS,6aS,9S,14bR,16aS,16bR)-13a-hydroxy-9-methoxy-2,4a,6a,9,14b,16a-hexamethyl-2,3,4,4a,5,6,6a,9,11,12,13a,14b,15,16,16a,16b-hexadecahydro-1H-piceno[2,3-b][1,4]oxazine-2-carboxylic acid] | 50 to 80% | ≥ 80% | 50 to 80% | 50 to 80% | ≥ 80% | 30 to 50% | ≥ 80%
8 | CO[C@@]1(C)C2=CC=C3[C@@](C)(CC[C@@]4(C)[C@@H]5C[C@](C)(C(=O)O)CC[C@]5(C)CC[C@]34C)C2=CC(=NO)[C@@H]1O [Compound A50, (2R,4aS,6aS,9S,10S,12bR,14aS,14bR)-10-hydroxy-11-(hydroxyimino)-9-methoxy-2,4a,6a,9,12b,14a-hexamethyl-1,2,3,4,4a,5,6,6a,9,10,11,12b,13,14,14a,14b-hexadecahydropicene-2-carboxylic acid] | < 30% | < 30% | < 30% | < 30% | < 30% | < 30% | < 30%
9 | CO[C@@]1(C)C2=CC=C3[C@@](C)(CC[C@@]4(C)[C@@H]5C[C@](C)(C(=O)O)CC[C@]5(C)CC[C@]34C)C2=CC(=O)C1=NNC(=O)c1ccncc1 [Compound A52, (2R,4aS,6aS,9S,12bR,14aS,14bR)-9-Methoxy-2,4a,6a,9,12b,14a-hexamethyl-11-oxo-10-{[(pyridin-4-yl)formamido]imino}-1,2,3,4,4a,5,6,6a,9,10,11,12b,13,14,14a,14b-hexadecahydropicene-2-carboxylic acid] | < 30% | < 30% | < 30% | < 30% | < 30% | < 30% | < 30%
10 | CO[C@]1(C)C(=O)C(=O)C=C2C1=CC=C1[C@@]2(C)CC[C@@]2(C)[C@@H]3C[C@](C)(C(=O)NO)CC[C@]3(C)CC[C@]12C [Compound A45, (2R,4aS,6aS,9S,12bR,14aS,14bR)—N-Hydroxy-9-methoxy-2,4a,6a,9,12b,14a-hexamethyl-10,11-dioxo-1,2,3,4,4a,5,6,6a,9,10,11,12b,13,14,14a,14b-hexadecahydropicene-2-carboxamide] | ≥ 80% | ≥ 80% | 50 to 80% | ≥ 80% | ≥ 80% | 50 to 80% | ≥ 80%
11 | CO[C@]1(C)C(=O)C(=O)C=C2C1=CC=C1[C@@]2(C)CC[C@@]2(C)[C@@H]3C[C@](C)(C(=O)N(C)C)CC[C@]3(C)CC[C@]12C [Compound A13, (2R,4aS,6aS,9S,12bR,14aS,14bR)-9-methoxy-N,N,2,4a,6a,9,12b,14a-octamethyl-10,11-dioxo-1,2,3,4,4a,5,6,6a,9,10,11,12b,13,14,14a,14b-hexadecahydropicene-2-carboxamide] | ≥ 80% | ≥ 80% | ≥ 80% | ≥ 80% | ≥ 80% | 30 to 50% | ≥ 80%
12 | COC(=O)[C@]1(C)CC[C@]2(C)CC[C@]3(C)C4=CC=C5C(=CC(=O)/C(=C/C#N)C5(C)O)[C@]4(C)CC[C@@]3(C)[C@@H]2C1 (stereo partly drawn) [Compound A34, methyl (2R,4aS,6aS,10E,12bR,14aS,14bR)-10-(cyanomethylidene)-9-hydroxy-2,4a,6a,9,12b,14a-hexamethyl-11-oxo-1,2,3,4,4a,5,6,6a,9,10,11,12b,13,14,14a,14b-hexadecahydropicene-2-carboxylate] | ≥ 80% | ≥ 80% | ≥ 80% | 50 to 80% | 50 to 80% | 50 to 80% | ≥ 80%
